# Measured values: ChEMBL document CHEMBL3608289, “Miltirone Is a Dual Inhibitor of P-Glycoprotein and Cell Growth in Doxorubicin-Resistant HepG2 Cells” (J Nat Prod, 2015)
# Active and inactive are the calls of the source. No cut-off for these calls is given here.
# Tests used:
# HepG2 [1] = assay: Cytotoxicity against human HepG2 cells after 24 hrs by MTT assay in presence of doxorubicin; format: functional, cell-based; settings: HepG2, 24 h
# HepG2 [2] = assay: Increase of SAPK/JNK phosphorylation in human doxorubicin-resistant HepG2 cells expressing p-gp at 1.56 to 25 uM by Western blot analysis in presence of NAC; format: cell-based
# HepG2 [3] = assay: Induction of apoptosis in human HepG2 cells assessed as activation of caspase-3/8/9 after 24 hrs by Western blotting; format: functional, cell-based
# HepG2 [4] = assay: Cytotoxicity against human doxorubicin-resistant HepG2 cells expressing p-gp after 24 hrs by MTT assay; format: functional, cell-based; settings: HepG2, 24 h
# HepG2 [5] = assay: Increase of SAPK/JNK phosphorylation in human doxorubicin-resistant HepG2 cells expressing p-gp at 1.56 to 25 uM by Western blot analysis; format: cell-based
# HepG2 [6] = assay: Induction of ROS generation in human HepG2 cells after 15 to 30 mins using CM-H2DCFDA by flow cytometry; format: functional, cell-based
# [7] = Cytotoxicity against human Hep3B cells after 24 hrs by MTT assay; format: functional, cell-based, Hep 3B2
# [8] = target: T1, MAP kinase p38 (Homo sapiens) (UniProt O15264+Q15759+Q16539+P53778); assay: Inhibition of p38 MAPK phosphorylation in human HepG2 cells at 1.56 to 25 uM by Western blot analysis; format: cell-based
# HepG2 [9] = assay: Effect on nonphosphorylated SAPK/JNK level in human doxorubicin-resistant HepG2 cells expressing p-gp at 25 uM by Western blot analysis; format: ADME, cell-based; settings: hepg2, 25 µM
# HepG2 [10] = assay: Competitive inhibition of p-glycoprotein in human doxorubicin-resistant HepG2 cells assessed as reduction of doxorubicin efflux after 1 hr by primary Dixon plot analysis; format: cell-based
# HepG2 [11] = assay: Induction of necrosis in human doxorubicin-resistant HepG2 cells expressing p-gp assessed as LDH leakage at >50 uM after 24 hrs; format: functional, cell-based
# [12] = target: ATP-dependent translocase ABCB1 (Homo sapiens, UniProt P08183); assay: Inhibition of p-glycoprotein in human doxorubicin-resistant HepG2 cells assessed as reduction of doxorubicin efflux after 1 hr by flow cytometry; format: cell-based; settings: hepg2, 1 h
# HepG2 [13] = assay: Induction of oxidative stress in human doxorubicin-resistant HepG2 cells expressing p-gp assessed as decrease of GSSG level per gram of protein at 25 uM after 24 hrs using DTNB by enzymatic kinetic method relative to control; format: functional, cell-based
# HepG2 [14] = assay: Induction of ROS generation in human HepG2 cells at 25 uM after 15 to 30 mins using H2DCFH dye by confocal microscopy in presence of PEG-SOD; format: functional, cell-based
# HepG2 [15] = assay: Induction of ROS generation in human HepG2 cells at 25 uM after 15 to 30 mins using H2DCFH dye by confocal microscopy in presence of PEG-catalase; format: functional, cell-based
# HepG2 [16] = assay: Induction of oxidative stress in human doxorubicin-resistant HepG2 cells expressing p-gp assessed as decrease of GSH level per gram of protein at 6.25 to 25 uM after 24 hrs using DTNB by enzymatic kinetic method relative to control; format: functional, cell-based
# HepG2 [17] = assay: Induction of apoptosis in human HepG2 cells assessed as increase in PARP cleavage after 24 hrs by Western blotting; format: functional, cell-based
# HepG2 [18] = assay: Induction of ROS generation in human doxorubicin-resistant HepG2 cells expressing p-gp at 25 uM after 15 mins using H2DCFH dye by confocal microscopy; format: functional, cell-based
# HepG2 [19] = assay: Induction of apoptosis in human HepG2 cells assessed as activation of caspase-3/8/9 at 12.5 after 24 hrs by Western blotting in presence of Z-LEHD-FMK; format: functional, cell-based
# HepG2 [20] = assay: Effect on nonphosphorylated p38 MAPK level in human doxorubicin-resistant HepG2 cells expressing p-gp at 25 uM by Western blot analysis; format: ADME, cell-based; settings: hepg2, 25 µM
# [21] = target: T1, MAP kinase p38 (Homo sapiens); assay: Inhibition of p38 MAPK phosphorylation in human HepG2 cells at 1.56 to 25 uM by Western blot analysis in presence of SB203580; format: cell-based
# [22] = Cytotoxicity against human PLC/PRF/5 cells after 24 hrs by MTT assay; format: functional, cell-based; settings: PLC-PRF-5, 24 h
# HepG2 [23] = assay: Induction of necrosis in human doxorubicin-resistant HepG2 cells expressing p-gp assessed as LDH leakage at 25 uM after 24 hrs; format: functional, cell-based
# HepG2 [24] = assay: Effect on nonphosphorylated p38 MAPK level in human HepG2 cells at 25 uM by Western blot analysis; format: ADME, cell-based; settings: hepg2, 25 µM
# HepG2 [25] = assay: Induction of apoptosis in human doxorubicin-resistant HepG2 cells expressing p-gp assessed as activation of caspase-3/8/9 at 12.5 after 24 hrs by Western blotting in presence of Z-LEHD-FMK; format: functional, cell-based
# HepG2 [26] = assay: Increase of SAPK/JNK phosphorylation in human HepG2 cells at 1.56 to 25 uM by Western blot analysis in presence of NAC; format: cell-based
# [27] = Cytotoxicity against human Hep3B cells after 24 hrs by MTT assay in presence of doxorubicin; format: functional, cell-based, Hep 3B2
# HepG2 [28] = assay: Induction of apoptosis in human doxorubicin-resistant HepG2 cells expressing p-gp assessed as activation of caspase-3/8/9 at 12.5 after 24 hrs by Western blotting in presence of Z-VAD-FMK; format: functional, cell-based
# HepG2 [29] = assay: Induction of apoptosis in human doxorubicin-resistant HepG2 cells expressing p-gp assessed as activation of caspase-3/8/9 at 12.5 after 24 hrs by Western blotting in presence of Z-IETD-FMK; format: functional, cell-based
# [30] = target: T1, MAP kinase p38 (Homo sapiens); assay: Inhibition of p38 MAPK phosphorylation in human HepG2 cells at 1.56 to 25 uM by Western blot analysis in presence of NAC; format: cell-based
# Sequence of ATP-dependent translocase ABCB1 (P08183 whole entry): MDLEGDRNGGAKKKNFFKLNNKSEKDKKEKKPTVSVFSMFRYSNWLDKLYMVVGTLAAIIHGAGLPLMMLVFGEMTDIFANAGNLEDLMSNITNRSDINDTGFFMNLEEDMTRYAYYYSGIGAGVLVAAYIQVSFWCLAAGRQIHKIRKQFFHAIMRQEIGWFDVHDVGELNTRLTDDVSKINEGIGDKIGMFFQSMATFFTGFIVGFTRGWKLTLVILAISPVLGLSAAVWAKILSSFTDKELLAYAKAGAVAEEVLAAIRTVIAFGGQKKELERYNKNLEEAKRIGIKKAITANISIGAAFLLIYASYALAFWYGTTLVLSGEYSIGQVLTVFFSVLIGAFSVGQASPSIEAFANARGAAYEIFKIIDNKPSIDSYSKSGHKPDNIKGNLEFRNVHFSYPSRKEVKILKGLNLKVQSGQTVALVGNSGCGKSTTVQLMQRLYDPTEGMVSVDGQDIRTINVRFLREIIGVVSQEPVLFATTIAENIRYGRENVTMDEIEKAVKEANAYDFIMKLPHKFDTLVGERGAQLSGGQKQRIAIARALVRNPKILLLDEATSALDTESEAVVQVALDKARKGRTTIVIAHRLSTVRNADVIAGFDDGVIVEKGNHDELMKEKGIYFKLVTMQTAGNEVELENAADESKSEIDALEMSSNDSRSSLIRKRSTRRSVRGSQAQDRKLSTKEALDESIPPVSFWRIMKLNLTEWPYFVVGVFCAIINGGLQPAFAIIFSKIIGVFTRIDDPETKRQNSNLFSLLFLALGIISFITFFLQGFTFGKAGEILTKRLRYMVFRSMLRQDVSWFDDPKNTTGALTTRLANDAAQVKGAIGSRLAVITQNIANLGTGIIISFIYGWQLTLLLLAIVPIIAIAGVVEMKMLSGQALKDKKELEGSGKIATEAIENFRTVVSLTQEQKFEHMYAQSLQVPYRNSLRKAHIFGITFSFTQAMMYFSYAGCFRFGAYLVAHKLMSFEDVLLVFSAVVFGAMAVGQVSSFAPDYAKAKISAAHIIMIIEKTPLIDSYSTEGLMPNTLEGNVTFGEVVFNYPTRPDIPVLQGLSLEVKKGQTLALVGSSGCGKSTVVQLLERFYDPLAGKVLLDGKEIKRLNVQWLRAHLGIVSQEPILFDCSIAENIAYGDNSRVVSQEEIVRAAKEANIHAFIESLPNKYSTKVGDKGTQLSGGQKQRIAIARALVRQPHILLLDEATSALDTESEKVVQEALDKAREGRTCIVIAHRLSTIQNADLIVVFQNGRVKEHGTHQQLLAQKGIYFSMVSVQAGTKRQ
structure (smiles),measurement,setting,value
CC(C)C1=Cc2ccc3c(c2C(=O)C1=O)CCCC3(C)C [MILTIRONE],EC50,HepG2 [1],30.9 µM
same,inhibition,HepG2 [2],inactive
same,Activity,HepG2 [3],Active
same,EC50,HepG2 [4],12 µM
same,Activity,HepG2 [5],Active
same,Activity,HepG2 [6],Dose-dependent effect
same,EC50,[7],14.8 µM
same,inhibition,[8],Active
same,Activity,HepG2 [9],Non-toxic
same,inhibition,HepG2 [10],Active
same,Activity,HepG2 [11],Active
same,inhibition (INH),[12],Active
same,Activity,HepG2 [13],inactive
same,Activity,HepG2 [14],inactive
same,Activity,HepG2 [15],inactive
same,Activity,HepG2 [16],Active
same,Activity,HepG2 [17],Active
same,Activity,HepG2 [18],Active
same,Activity,HepG2 [19],inactive
same,Activity,HepG2 [20],Non-toxic
same,inhibition,[21],inactive
same,EC50,[22],27.1 µM
same,Activity,HepG2 [23],inactive
same,Activity,HepG2 [24],Non-toxic
same,Activity,HepG2 [25],inactive
same,inhibition,HepG2 [26],inactive
same,EC50,[27],6.6 µM
same,Activity,HepG2 [28],inactive
same,Activity,HepG2 [29],inactive
same,inhibition,[30],inactive
